Common to all, as to assay type: physicochemical
A short description of series [1]: Storage stability under humidity/temperature conditions. The note with it: for stability under regular conditions: 60% RH at RT; for stability under regular conditions / stability under accelerated conditions: for at least one month; for stability under accelerated conditions: 75% RH at 40° C.; for stability up to 80% RH: up to 80% RH at RT, for at least one week.

Series [2] is described as follows: Stability under stress conditions (heating, grinding, high pressure). The note with it: for stability under stress conditions: heating, grinding and high pressure.
Series [3] is described as follows: Hygroscopicity.

Counter-ions that a name gives are not always drawn.

Turning to `O=C(c1ccc(NS(=O)(=O)c2cccc3cccnc23)cc1)N1CCN(CC2CC2)CC1` [Form I of Mitapivat HCl, Mitapivat HCl], in series [1], the “stability under regular conditions” value is listed as “stable” and the “stability under accelerated conditions” value is reported as “stable”. The “stability under stress conditions” value in series [2] was “stable”. Also, in series [3], the hygroscopicity entry is “non-hygroscopic”.

On to `O=C(c1ccc(NS(=O)(=O)c2cccc3cccnc23)cc1)N1CCN(CC2CC2)CC1` [Form III of Mitapivat HCl, Mitapivat HCl], for which the “stability up to 80% RH” value in series [1] is recorded as “stable”.

Mitapivat hemisulfate:ascorbic acid: in series [1], the “stability under regular conditions” value was “polymorphically and chemically stable”; the “stability under accelerated conditions” value was “polymorphically and chemically stable”. In addition, in series [2], the “stability under stress conditions” value is “stable”. The hygroscopicity entry in series [3] was “non-hygroscopic”.

Consider “Mitapivat phosphate [Form P1 of Mitapivat phosphate]”, for which the “stability up to 80% RH” value in series [1] is given as “stable”. Moreover, the stability under grinding result in series [2] (grinding) is “stable”. For the same molecule, the hygroscopicity entry in series [3] is “non-hygroscopic”.

For the origin of these results see patent US12286404B2, “Solid state forms of Mitapivat and process for preparation thereof” (TEVA PHARMACEUTICALS INTERNATIONAL GMBH, priority 2020, dated 2025).
